# Data published in patent publication US20230235409A1, “METHOD OF PREDICTING THERAPEUTIC RESPONSE AND PROGNOSIS OF METASTATIC BREAST CANCER TO CHEMOTHERAPEUTIC AGENTS, AND TREATING METASTATIC BREAST CANCER” (Samsung Life Public Welfare Foundation, priority 2021, published 2023).
# Test system: premenopausal HR+/HER2− metastatic breast cancer
# Assay: Kaplan Meier PFS analysis of capecitabine-treated patients by five-gene marker combination
# Format: in vivo
# Description: Among 141 premenopausal HR+/HER2− MBC patients, a tumor sample was isolated from a group (n=62) administered with capecitabine, and sequencing was performed on the sample. CancerSCAN™ targeted panel sequencing was performed to detect 375 cancer-related gene variations, and transcriptome analysis was performed to detect overall gene expression patterns.
# A univariate Cox proportional hazard model was analyzed for each genetic variation/CNV, the p-value derived by the log-rank test was defined as a p-value cutoff of 0.05 as the criterion for a statistically significant difference, and 30 biomarkers with p-value<0.05 were selected as candidate markers. […] In other words, the description of “NF2+FAT3” includes the case where there exists a mutation in either NF2 or FAT3 gene.
smiles,measurement,setting,value
CCCCCOC(=O)Nc1nc(=O)n([C@@H]2O[C@H](C)[C@@H](O)[C@H]2O)cc1F [capecitabine],median PFS,"mutant group (mutation in NF2, FAT3, LRP1B, PTEN or RAD50), capecitabine-administered group n=62, FIG. 3",12 months
same,"risk of mutant group relative to normal group (WT), PFS","mutant group vs WT (no mutation in all five genes), capecitabine-administered patients, FIG. 3",about 5 times
